{"source": "paper PMC6832219", "about": "“Synthesis of Novel Baicalein Amino Acid Derivatives and Biological Evaluation as Neuroprotective Agents” (Molecules, 2019)", "test_system": "chick chorioallantoic membrane (CAM)", "test": "Angiogenesis assay on chick chorioallantoic membrane (CAM), gelatin sponge", "assay_type": "in vivo", "conditions": "1 and 4 mg/mL on gelatin sponge", "procedure": "Especially multi-effective neuroprotective agents present positive effects to neurosurgical patients. According to the references, baicalein can promote angiogenesis. Analogously, the angiogenesis activities of compound 8 were evaluated by a CAM assay (Figure 4 and Figure 5). The model was established according to our previous work. After implantation, the sponge is treated with a stimulator of blood vessel formation in the absence or presence of an angiogenesis inhibitor. […] The high survival rate of embryos and normal growth of medium and large vessels (inner diameter > 50 µm) indicates successful modeling and low toxicity of compound 8 […] (Figure 5). Suppression of small vessels (inner diameter < 50 µm) were recognized as angiogenesis activity. […]\nFertilized White Leghorn chicken eggs (50–65 g), provided by the Chinese Academy of Agricultural Sciences, were placed in an incubator as soon as embryogenesis started, and were kept under constant humidity of 65% at 37 °C. […] Quantitative evaluation of the angiogenic response, expressed as microvessel density, can be obtained by applying a morphometric method of “point counting” on histological CAM sections. Data was analyzed using a t-test of the statistics analysis system; the values were expressed as mean ± SD of six observations, and p < 0.05 was considered significant. […]", "data": [{"smiles": "O=C(NC(Cc1ccccc1)C(=O)Oc1c(O)cc2oc(-c3ccccc3)cc(=O)c2c1O)OCc1ccccc1", "note": "(centres unmarked) [Compound 8, 5,7-dihydroxy-4-oxo-2-phenyl-4H-chromen-6-yl 2-{[(benzyloxy)carbonyl]amino}-3-phenyl-proppanpate]", "values": [{"measurement": "Toxicity in CAM model (embryo survival, medium and large vessels)", "result": "low toxicity"}, {"measurement": "Angiogenesis activity on CAM (small vessels)", "setting": "48 h", "result": "dramatically promote small angiogenesis in a dose-dependent manner"}]}]}
